# From patent US20020111274A1, “1-alkyl-3-[1-(substituted phenyl) benzotriazol-6-yl] uracils” (BASF Aktiengesellschaft, priority 2000, published 2002)
# Legend:
# Design in all cases: scale not given here
# ABUTH Velvetleaf [1] = test: Postemergence herbicidal evaluation, ABUTH; assay type: in vivo, Abutilon theophrasti, Medic.; conditions: postemergence spray, rated about two-three weeks after treatment
# In short: (§1)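 Visual injury rating ~2–3 wk post-spray; replicate tests averaged. Two-week-old seedlings; foliar spray at 40 psi; 0.006–0.400 kg ai/ha in 80/20 acetone/water + 1.0% methylated seed oil.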
# AMBEL Ragweed, Common [2] = test: Postemergence herbicidal evaluation, AMBEL; assay type: in vivo, Ambrosia artemisifolia, L.; conditions: postemergence spray, rated about two-three weeks after treatment
# In short: as §1
# CASOB Sicklepod [3] = test: Postemergence herbicidal evaluation, CASOB; assay type: in vivo, Cassia obtusifolia, L.; conditions: postemergence spray, rated about two-three weeks after treatment
# In short: as §1
# [4] = system: CHEAL Lambsquarters, Common; test: Postemergence herbicidal evaluation, CHEAL; assay type: in vivo, Chenopodium album, L.; conditions: postemergence spray, rated about two-three weeks after treatment
# In short: as §1
# ECHOG Barnyardgrass [5] = test: Postemergence herbicidal evaluation, ECHOG; assay type: in vivo, Echinochloa crus-galli, (L.) Beau; conditions: postemergence spray, rated about two-three weeks after treatment
# In short: as §1
# GALAP Galium [6] = test: Postemergence herbicidal evaluation, GALAP; assay type: in vivo, Galium aparine; conditions: postemergence spray, rated about two-three weeks after treatment
# In short: as §1
# [7] = system: IPOHE Morningglory, Ivyleaf; test: Postemergence herbicidal evaluation, IPOHE; assay type: in vivo, Ipomoea hederacea, (L.) Jacq.; conditions: postemergence spray, rated about two-three weeks after treatment
# In short: as §1
# SETVI Foxtail, Green [8] = test: Postemergence herbicidal evaluation, SETVI; assay type: in vivo, Setaria viridis, (L.) Beau; conditions: postemergence spray, rated about two-three weeks after treatment
# In short: as §1
# GLXMAW Soybean, Williams [9] = test: Postemergence herbicidal evaluation, GLXMAW; assay type: in vivo, Glycine max, (L.) Merr. cv Williams; conditions: postemergence spray, rated about two-three weeks after treatment
# In short: as §1
# [10] = system: TRZAWR Wheat, Winter, cv Riband; test: Postemergence herbicidal evaluation, TRZAWR; assay type: in vivo, Triticum aestivum; conditions: postemergence spray, rated about two-three weeks after treatment
# In short: as §1
# ORYSAT Rice, Tebonnet [11] = test: Postemergence herbicidal evaluation, ORYSAT; assay type: in vivo, Oryza sativa, (L.); conditions: postemergence spray, rated about two-three weeks after treatment
# In short: as §1
# ZEAMX Corn, Field [12] = test: Postemergence herbicidal evaluation, ZEAMX; assay type: in vivo, Zea mays, L. (Sammel-Bezeichnung); conditions: postemergence spray, rated about two-three weeks after treatment
# In short: as §1
# ABUTH Velvetleaf [13] = test: Preemergence herbicidal evaluation, ABUTH; assay type: in vivo, Abutilon theophrasti, Medic.; conditions: preemergence
# In short: (§2)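 Seeds mixed with potting soil in cups, then sprayed preemergence with aqueous acetone test solution at about 0.013 to 0.800 kg per hectare equivalent. Cups kept under standard greenhouse care; plants rated on a visual scale four to five weeks after treatment.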
# AMBEL Ragweed, Common [14] = test: Preemergence herbicidal evaluation, AMBEL; assay type: in vivo, Ambrosia artemisifolia, L.; conditions: preemergence
# In short: as §2
# CASOB Sicklepod [15] = test: Preemergence herbicidal evaluation, CASOB; assay type: in vivo, Cassia obtusifolia, L.; conditions: preemergence
# In short: as §2
# [16] = system: CHEAL Lambsquarters, Common; test: Preemergence herbicidal evaluation, CHEAL; assay type: in vivo, Chenopodium album, L.; conditions: preemergence
# In short: as §2
# ECHOG Barnyardgrass [17] = test: Preemergence herbicidal evaluation, ECHOG; assay type: in vivo, Echinochloa crus-galli, (L.) Beau; conditions: preemergence
# In short: as §2
# GALAP Galium [18] = test: Preemergence herbicidal evaluation, GALAP; assay type: in vivo, Galium aparine; conditions: preemergence
# In short: as §2
# [19] = system: IPOHE Morningglory, Ivyleaf; test: Preemergence herbicidal evaluation, IPOHE; assay type: in vivo, Ipomoea hederacea, (L.) Jacq.; conditions: preemergence
# In short: as §2
# SETVI Foxtail, Green [20] = test: Preemergence herbicidal evaluation, SETVI; assay type: in vivo, Setaria viridis, (L.) Beau; conditions: preemergence
# In short: as §2
# GLXMAW Soybean, Williams [21] = test: Preemergence herbicidal evaluation, GLXMAW; assay type: in vivo, Glycine max, (L.) Merr. cv Williams; conditions: preemergence
# In short: as §2
# [22] = system: TRZAWR Wheat, Winter, cv Riband; test: Preemergence herbicidal evaluation, TRZAWR; assay type: in vivo, Triticum aestivum; conditions: preemergence
# In short: as §2
# ORYSAT Rice, Tebonnet [23] = test: Preemergence herbicidal evaluation, ORYSAT; assay type: in vivo, Oryza sativa, (L.); conditions: preemergence
# In short: as §2
# ZEAMX Corn, Field [24] = test: Preemergence herbicidal evaluation, ZEAMX; assay type: in vivo, Zea mays, L. (Sammel-Bezeichnung); conditions: preemergence
# In short: as §2
smiles,measurement,setting,value
COc1ccc(-n2nnc3cc(F)c(-n4c(=O)cc(C(F)(F)F)n(C)c4=O)cc32)cc1 [Example 27],Postemergence herbicidal rating ABUTH,ABUTH Velvetleaf [1]; 0.008 kg/ha,9.0
same,Postemergence herbicidal rating ABUTH,ABUTH Velvetleaf [1]; 0.016 kg/ha,9.0
same,Postemergence herbicidal rating ABUTH,ABUTH Velvetleaf [1]; 0.032 kg/ha,9.0
same,Postemergence herbicidal rating AMBEL,"AMBEL Ragweed, Common [2]; 0.008 kg/ha",5.0
same,Postemergence herbicidal rating AMBEL,"AMBEL Ragweed, Common [2]; 0.016 kg/ha",9.0
same,Postemergence herbicidal rating AMBEL,"AMBEL Ragweed, Common [2]; 0.032 kg/ha",9.0
same,Postemergence herbicidal rating CASOB,CASOB Sicklepod [3]; 0.008 kg/ha,1.0
same,Postemergence herbicidal rating CASOB,CASOB Sicklepod [3]; 0.016 kg/ha,1.0
same,Postemergence herbicidal rating CASOB,CASOB Sicklepod [3]; 0.032 kg/ha,6.0
same,Postemergence herbicidal rating CHEAL,[4]; 0.008 kg/ha,4.0
same,Postemergence herbicidal rating CHEAL,[4]; 0.016 kg/ha,7.0
same,Postemergence herbicidal rating CHEAL,[4]; 0.032 kg/ha,9.0
same,Postemergence herbicidal rating ECHCG,ECHOG Barnyardgrass [5]; 0.008 kg/ha,1.0
same,Postemergence herbicidal rating ECHCG,ECHOG Barnyardgrass [5]; 0.016 kg/ha,1.0
same,Postemergence herbicidal rating ECHCG,ECHOG Barnyardgrass [5]; 0.032 kg/ha,2.0
same,Postemergence herbicidal rating GALAP,GALAP Galium [6]; 0.008 kg/ha,1.0
same,Postemergence herbicidal rating GALAP,GALAP Galium [6]; 0.016 kg/ha,4.0
same,Postemergence herbicidal rating GALAP,GALAP Galium [6]; 0.032 kg/ha,9.0
same,Postemergence herbicidal rating IPOHE,[7]; 0.008 kg/ha,9.0
same,Postemergence herbicidal rating IPOHE,[7]; 0.016 kg/ha,9.0
same,Postemergence herbicidal rating IPOHE,[7]; 0.032 kg/ha,9.0
same,Postemergence herbicidal rating SETVI,"SETVI Foxtail, Green [8]; 0.008 kg/ha",7.0
same,Postemergence herbicidal rating SETVI,"SETVI Foxtail, Green [8]; 0.016 kg/ha",4.0
same,Postemergence herbicidal rating SETVI,"SETVI Foxtail, Green [8]; 0.032 kg/ha",7.0
same,Postemergence herbicidal rating GLXMAW,"GLXMAW Soybean, Williams [9]; 0.008 kg/ha",5.0
same,Postemergence herbicidal rating GLXMAW,"GLXMAW Soybean, Williams [9]; 0.016 kg/ha",6.0
same,Postemergence herbicidal rating GLXMAW,"GLXMAW Soybean, Williams [9]; 0.032 kg/ha",6.0
same,Postemergence herbicidal rating TRZAWR,[10]; 0.008 kg/ha,2.0
same,Postemergence herbicidal rating TRZAWR,[10]; 0.016 kg/ha,4.0
same,Postemergence herbicidal rating TRZAWR,[10]; 0.032 kg/ha,4.5
same,Postemergence herbicidal rating ORYSAT,"ORYSAT Rice, Tebonnet [11]; 0.008 kg/ha",2.5
same,Postemergence herbicidal rating ORYSAT,"ORYSAT Rice, Tebonnet [11]; 0.016 kg/ha",4.5
same,Postemergence herbicidal rating ORYSAT,"ORYSAT Rice, Tebonnet [11]; 0.032 kg/ha",4.5
same,Postemergence herbicidal rating ZEAMX,"ZEAMX Corn, Field [12]; 0.008 kg/ha",4.5
same,Postemergence herbicidal rating ZEAMX,"ZEAMX Corn, Field [12]; 0.016 kg/ha",5.0
same,Postemergence herbicidal rating ZEAMX,"ZEAMX Corn, Field [12]; 0.032 kg/ha",5.5
same,ABUTH herbicidal rating,ABUTH Velvetleaf [13]; rate 0.032 kg/ha,6.0
same,ABUTH herbicidal rating,ABUTH Velvetleaf [13]; rate 0.062 kg/ha,9.0
same,ABUTH herbicidal rating,ABUTH Velvetleaf [13]; rate 0.125 kg/ha,9.0
same,AMBEL herbicidal rating,"AMBEL Ragweed, Common [14]; rate 0.016 kg/ha",0.0
same,AMBEL herbicidal rating,"AMBEL Ragweed, Common [14]; rate 0.032 kg/ha",2.0
same,AMBEL herbicidal rating,"AMBEL Ragweed, Common [14]; rate 0.062 kg/ha",7.0
same,AMBEL herbicidal rating,"AMBEL Ragweed, Common [14]; rate 0.125 kg/ha",9.0
same,CASOB herbicidal rating,CASOB Sicklepod [15]; rate 0.016 kg/ha,0.0
same,CASOB herbicidal rating,CASOB Sicklepod [15]; rate 0.032 kg/ha,1.0
same,CASOB herbicidal rating,CASOB Sicklepod [15]; rate 0.062 kg/ha,2.0
same,CASOB herbicidal rating,CASOB Sicklepod [15]; rate 0.125 kg/ha,9.0
same,CHEAL herbicidal rating,[16]; rate 0.016 kg/ha,9.0
same,CHEAL herbicidal rating,[16]; rate 0.032 kg/ha,9.0
same,CHEAL herbicidal rating,[16]; rate 0.062 kg/ha,9.0
same,CHEAL herbicidal rating,[16]; rate 0.125 kg/ha,9.0
same,ECHCG herbicidal rating,ECHOG Barnyardgrass [17]; rate 0.016 kg/ha,1.0
same,ECHCG herbicidal rating,ECHOG Barnyardgrass [17]; rate 0.032 kg/ha,4.0
same,ECHCG herbicidal rating,ECHOG Barnyardgrass [17]; rate 0.062 kg/ha,9.0
same,ECHCG herbicidal rating,ECHOG Barnyardgrass [17]; rate 0.125 kg/ha,9.0
same,GALAP herbicidal rating,GALAP Galium [18]; rate 0.016 kg/ha,1.0
same,GALAP herbicidal rating,GALAP Galium [18]; rate 0.032 kg/ha,2.0
same,GALAP herbicidal rating,GALAP Galium [18]; rate 0.062 kg/ha,9.0
same,GALAP herbicidal rating,GALAP Galium [18]; rate 0.125 kg/ha,9.0
same,IPOHE herbicidal rating,[19]; rate 0.016 kg/ha,0.0
same,IPOHE herbicidal rating,[19]; rate 0.032 kg/ha,1.0
same,IPOHE herbicidal rating,[19]; rate 0.062 kg/ha,1.0
same,IPOHE herbicidal rating,[19]; rate 0.125 kg/ha,5.0
same,SETVI herbicidal rating,"SETVI Foxtail, Green [20]; rate 0.016 kg/ha",9.0
same,SETVI herbicidal rating,"SETVI Foxtail, Green [20]; rate 0.032 kg/ha",9.0
same,SETVI herbicidal rating,"SETVI Foxtail, Green [20]; rate 0.062 kg/ha",9.0
same,SETVI herbicidal rating,"SETVI Foxtail, Green [20]; rate 0.125 kg/ha",9.0
same,GLXMAW herbicidal rating,"GLXMAW Soybean, Williams [21]; rate 0.016 kg/ha",1.0
same,GLXMAW herbicidal rating,"GLXMAW Soybean, Williams [21]; rate 0.032 kg/ha",1.0
same,GLXMAW herbicidal rating,"GLXMAW Soybean, Williams [21]; rate 0.062 kg/ha",5.0
same,GLXMAW herbicidal rating,"GLXMAW Soybean, Williams [21]; rate 0.125 kg/ha",9.0
same,TRZAWR herbicidal rating,[22]; rate 0.016 kg/ha,1.0
same,TRZAWR herbicidal rating,[22]; rate 0.032 kg/ha,2.0
same,TRZAWR herbicidal rating,[22]; rate 0.062 kg/ha,3.0
same,TRZAWR herbicidal rating,[22]; rate 0.125 kg/ha,2.0
same,ORYSAT herbicidal rating,"ORYSAT Rice, Tebonnet [23]; rate 0.016 kg/ha",1.0
same,ORYSAT herbicidal rating,"ORYSAT Rice, Tebonnet [23]; rate 0.032 kg/ha",2.0
same,ORYSAT herbicidal rating,"ORYSAT Rice, Tebonnet [23]; rate 0.062 kg/ha",5.0
same,ORYSAT herbicidal rating,"ORYSAT Rice, Tebonnet [23]; rate 0.125 kg/ha",6.0
same,ZEAMX herbicidal rating,"ZEAMX Corn, Field [24]; rate 0.016 kg/ha",2.0
same,ZEAMX herbicidal rating,"ZEAMX Corn, Field [24]; rate 0.032 kg/ha",4.0
same,ZEAMX herbicidal rating,"ZEAMX Corn, Field [24]; rate 0.062 kg/ha",7.0
same,ZEAMX herbicidal rating,"ZEAMX Corn, Field [24]; rate 0.125 kg/ha",7.0
